# In PMC2219262 (The Journal of General Physiology, 1996):
# “And” between values parts separate entries of the source, which are not always exact repeats. Identical values can stand only once. “Also recorded” adds a separate entry of the source. Like-named read-outs stand apart in the source and are kept apart here.
# How the values were obtained:
# [1] = target: Na+ current (INa) (Doryteuthis opalescens, UniProt Q25377); format: cell-based, squid Loligo opalescens
# [2] = system: Ca2+ current (ICa); format: cell-based, squid Loligo opalescens
# [3] = target: K+ current (IK), K channels (Doryteuthis opalescens, UniProt Q25376); format: cell-based, squid Loligo opalescens
# Chain of K+ current (IK), K channels (Q25376 1-488): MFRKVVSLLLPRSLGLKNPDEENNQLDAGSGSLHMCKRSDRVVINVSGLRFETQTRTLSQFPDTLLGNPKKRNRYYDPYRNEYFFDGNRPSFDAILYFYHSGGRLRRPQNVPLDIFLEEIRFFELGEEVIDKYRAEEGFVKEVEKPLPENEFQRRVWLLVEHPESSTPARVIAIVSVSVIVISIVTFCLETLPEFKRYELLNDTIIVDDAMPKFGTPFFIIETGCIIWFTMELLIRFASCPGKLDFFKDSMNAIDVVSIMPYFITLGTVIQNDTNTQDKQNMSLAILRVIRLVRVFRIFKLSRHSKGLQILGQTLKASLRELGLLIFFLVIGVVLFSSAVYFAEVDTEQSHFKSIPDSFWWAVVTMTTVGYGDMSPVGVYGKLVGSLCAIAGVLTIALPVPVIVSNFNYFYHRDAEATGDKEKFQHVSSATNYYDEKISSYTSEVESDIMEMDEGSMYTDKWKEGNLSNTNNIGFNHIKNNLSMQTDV
# [4] = system: IK in GH3 cells; format: cell-based, rat; conditions: read-out: apparent KD for IK block
# [5] = pKa of methadone; format: physicochemical; conditions: implied by pKa
# [6] = ref Kaufman et al., 1975; cited from earlier work
# [7] = Fig. 4: 100 μM, +80 mV, 100K//200K
# [8] = Fig. 12 A: 100 μM, +60 mV, 10K//100K, model C
# [9] = Fig. 12 B: 10 °C, 100 μM, +60 mV, 10K//50K
# [10] = Fig. 12 B: 20 °C, 100 μM, +60 mV, 10K//50K
# Chain of Na+ current (INa) (Q25377 1-1784): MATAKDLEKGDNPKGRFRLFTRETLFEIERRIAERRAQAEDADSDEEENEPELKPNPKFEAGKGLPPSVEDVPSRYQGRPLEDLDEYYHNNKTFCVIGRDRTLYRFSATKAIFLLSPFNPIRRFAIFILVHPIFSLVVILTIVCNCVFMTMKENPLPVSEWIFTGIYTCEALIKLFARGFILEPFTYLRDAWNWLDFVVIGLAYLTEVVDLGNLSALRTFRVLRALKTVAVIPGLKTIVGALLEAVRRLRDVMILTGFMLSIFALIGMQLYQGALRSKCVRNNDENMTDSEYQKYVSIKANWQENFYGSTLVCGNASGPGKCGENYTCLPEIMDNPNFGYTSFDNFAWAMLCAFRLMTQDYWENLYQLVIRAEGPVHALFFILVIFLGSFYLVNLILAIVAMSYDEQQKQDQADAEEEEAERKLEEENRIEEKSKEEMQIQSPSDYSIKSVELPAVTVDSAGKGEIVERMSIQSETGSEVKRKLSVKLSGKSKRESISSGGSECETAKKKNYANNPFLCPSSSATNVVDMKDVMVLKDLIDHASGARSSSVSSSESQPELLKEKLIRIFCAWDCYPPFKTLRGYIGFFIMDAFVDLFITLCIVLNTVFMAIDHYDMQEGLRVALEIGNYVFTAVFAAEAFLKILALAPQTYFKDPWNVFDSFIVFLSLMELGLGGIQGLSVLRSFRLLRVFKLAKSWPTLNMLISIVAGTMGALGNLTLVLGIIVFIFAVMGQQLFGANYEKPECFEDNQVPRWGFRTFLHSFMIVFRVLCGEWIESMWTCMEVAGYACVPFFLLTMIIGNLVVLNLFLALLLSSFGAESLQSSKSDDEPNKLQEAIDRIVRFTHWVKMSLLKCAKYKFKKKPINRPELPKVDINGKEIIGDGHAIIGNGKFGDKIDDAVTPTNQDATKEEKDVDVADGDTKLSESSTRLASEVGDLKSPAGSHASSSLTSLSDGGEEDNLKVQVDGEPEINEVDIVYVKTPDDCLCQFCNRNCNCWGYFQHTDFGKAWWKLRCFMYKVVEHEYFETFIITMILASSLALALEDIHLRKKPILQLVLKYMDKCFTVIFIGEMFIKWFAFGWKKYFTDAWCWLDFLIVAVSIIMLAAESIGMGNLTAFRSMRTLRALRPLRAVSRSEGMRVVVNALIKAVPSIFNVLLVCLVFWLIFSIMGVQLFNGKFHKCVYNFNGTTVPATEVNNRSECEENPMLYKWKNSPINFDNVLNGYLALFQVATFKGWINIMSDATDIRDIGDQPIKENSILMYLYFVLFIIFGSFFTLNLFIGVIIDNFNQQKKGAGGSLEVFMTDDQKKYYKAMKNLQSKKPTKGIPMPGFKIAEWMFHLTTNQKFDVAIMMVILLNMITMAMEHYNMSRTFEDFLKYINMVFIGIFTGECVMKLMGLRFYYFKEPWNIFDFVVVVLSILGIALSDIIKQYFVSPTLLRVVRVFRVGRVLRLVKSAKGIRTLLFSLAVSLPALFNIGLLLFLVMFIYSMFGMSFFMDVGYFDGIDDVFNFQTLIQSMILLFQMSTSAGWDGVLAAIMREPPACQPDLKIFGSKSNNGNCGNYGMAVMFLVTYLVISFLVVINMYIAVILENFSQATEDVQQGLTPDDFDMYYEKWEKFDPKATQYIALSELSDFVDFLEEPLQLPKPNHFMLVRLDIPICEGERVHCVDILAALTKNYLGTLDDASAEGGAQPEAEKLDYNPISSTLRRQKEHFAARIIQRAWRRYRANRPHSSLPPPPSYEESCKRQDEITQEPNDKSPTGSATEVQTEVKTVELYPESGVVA
compound,measurement,setting,value
CN1CC[C@]23c4c5ccc(O)c4O[C@H]2[C@@H](O)C=C[C@H]3[C@H]1C5 [morphine],effect on INa,"[1]; 350 μM, data not shown",no detectable effect
same,effect on ICa,"[2]; 350 μM, data not shown",no detectable effect
same,effect on IK,"[3]; 350 μM, +30 mV",no detectable effect
C=CCN1CC[C@]23c4c5ccc(O)c4O[C@H]2C(=O)CC[C@@]3(O)[C@H]1C5 [naloxone],effect on the ability of methadone to block IK,[3]; data not shown,did not prevent
(±)methadone,use-dependent effect on peak INa,"[1]; 50 μM, repetitive depolarization to +10 mV at 4 Hz",no detectable effect
same,use-dependent reduction in peak INa amplitude,"[1]; 50 μM, repetitive depolarization to +70 mV, 5-ms pulses at 4 Hz, Hp -80 mV",20%
CCC(=O)C(C[C@@H](C)N(C)C)(c1ccccc1)c1ccccc1 [(-)methadone],factor of increase of rate of block (K) from 10 to 20 °C,[3],2.1
same,steady state IK as % of control,"[3]; 100 μM, 25-ms depolarization to +80 mV, 100K//200K",27%
same,rate of block (K),[3]; [7],2.6 ms-1 mM-1
same,rate of unblock (L),[3]; [7],0.096 ms-1
same,rate of block (K),[3]; [8],2.2 ms-1 mM-1
same,rate of unblock (L),[3]; [8],0.062 ms-1
same,rate of block (K),[3]; [9],1.5 ms-1 mM-1
same,rate of unblock (L),[3]; [9],0.060 ms-1
same,rate of block (K),[3]; [10],3.2 ms-1 mM-1
same,rate of unblock (L),[3]; [10],0.084 ms-1
CCC(=O)O[C@](Cc1ccccc1)(c1ccccc1)[C@H](C)CN(C)C [propoxyphene],Kd,[4],31 µM and ~30 µM
CCC(=O)C(C[C@H](C)N(C)C)(c1ccccc1)c1ccccc1 [(+)methadone],rate of block (K),[3]; [8],2.3 ms-1 mM-1
same,rate of unblock (L),[3]; [8],0.142 ms-1
CCC(=O)C(CC(C)N(C)C)(c1ccccc1)c1ccccc1 (centres unmarked) [methadone],fraction of drug molecules charged at physiological pH,[5],> 99%
same,pKa,[6],9.64
same,ICa block at small depolarizations,"[2]; -10 and -20 mV, 200 and 500 μM methadone",Little or no block
CCC(=O)C(CC(C)[N+](C)(C)C)(c1ccccc1)c1ccccc1.[I-] (centres unmarked) [N-methyl-methadone],effect on INa when applied externally,[1]; 1 mM external,no effect
same,effect on ICa when applied externally,[2]; 1 mM external,no effect
same,effect on IK when applied externally,[3]; 1 mM external,without effect; also recorded: no effect
same,effect of changes in external pH on IK block,"[3]; internally applied, data not shown",do not affect
